PubChem BioAssay (NCI)
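Growth conditions: 96-well plates. Treatment: test compound, 48 hours, 5 concentrations. Analysis: linear interpolation between bracketing concentrations; unreached endpoints set to highest concentration. GI50: concentration for 50% inhibition of growth. Definition used: TGI = concentration required for complete inhibition of growth.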

What was measured:
Experiment in all cases: growth of human tumour cells (NCI), 48 h
[1] = tested on: CCRF-CEM leukemia
[2] = tested on: HOP-62 NSCLC
[3] = tested on: KM12 colon
[4] = tested on: MALME-3M melanoma
[5] = tested on: NCI-H226 lung
[6] = tested on: NCI-H23 lung
[7] = tested on: OVCAR-3 ovarian
[8] = tested on: U251 CNS
[9] = tested on: UACC-257 melanoma
[10] = tested on: MCF7 breast

| Compound | TGI [1] [µM] | TGI [2] [µM] | TGI [3] [µM] | TGI [4] [µM] | TGI [5] [µM] | TGI [6] [µM] | TGI [7] [µM] | TGI [8] [µM] | TGI [9] [µM] | TGI [10] [µM] | GI50 [1] [µM] | GI50 [2] [µM] | GI50 [3] [µM] | GI50 [10] [µM] | GI50 [5] [µM] | GI50 [6] [µM] | GI50 [7] [µM] | GI50 [8] [µM] | GI50 [9] [µM] |
| --- | --- | --- | --- | --- | --- | --- | --- | --- | --- | --- | --- | --- | --- | --- | --- | --- | --- | --- | --- |
| C[C@H](O)C(=O)SC[C@H](NC(=O)CC[C@@H](N)C(=O)O)C(=O)NCC(=O)O | > 100 | > 100 | > 100 | > 100 | > 100 | > 100 | > 100 | > 100 | > 100 |  |  |  |  |  |  |  |  |  |  |
| COc1cc(NCc2ccc3n2-c2ccccc2OC3)cc(OC)c1OC | 44.3 | > 100 | > 100 | 50.9 | > 100 | > 100 | 75.5 | > 100 | 64.1 | 40.6 |  |  |  |  |  |  |  |  |  |
| CC(O)=NC(Cc1ccc2ccccc2c1)C(O)=NC(Cc1ccc(Cl)cc1)C(O)=NC(Cc1c[nH]c2ccccc12)C(O)=NC(CO)C(O)=NC(Cc1ccc(O)cc1)C(O)=NC(CCCN=C(N)N)C(O)=NC(CC(C)C)C(O)=NC(CCCN=C(N)N)C(=O)N1CCCC1C(O)=NC(C)C(=N)O (configuration not stated) | > 100 | > 100 | > 100 | > 100 | 80.7 | > 100 | > 100 | 61.4 | > 100 | > 100 |  |  |  |  |  |  |  |  |  |
| COc1ccc2c(c1)CC[C@@H]1[C@@H]2CC[C@]2(C)[C@@H](O)/C(=C/c3ccncc3)C[C@@H]12 | 81 | 37.3 | 31.4 | 29.9 | 44.7 | 31.7 | 39.3 | 25.1 | 35.6 | 30.2 |  |  |  |  |  |  |  |  |  |
| CCOc1ccc2c(c1)NC(=O)C(C1OC(c3ccccc3)=CC1=O)S2 (configuration not stated) | 10.9 | > 100 | 66.3 | 44.5 | 67.5 | 94.2 | 50.1 | 49.2 | > 100 | 30.4 |  |  |  |  |  |  |  |  |  |
| CCOC(=O)[C@H]1C[C@]23CN(C(=O)OC(C)(C)C)CC[C@H]2CCC2(SCCCS2)[C@@H]3N1C | > 100 | > 100 | > 100 | 74.6 | > 100 | > 100 | > 100 | > 100 | 77.5 | > 100 |  |  |  |  |  |  |  |  |  |
| Cc1cc(-c2nc3cc(F)ccc3s2)ccc1NC(=O)C(C)N (configuration not stated) | 3.25 | 8.32 | 9.36 | 25 | > 25 | 6.24 | 7.32 | 9.42 | 8.88 | 2.7 |  |  |  |  |  |  |  |  |  |
| C[n+]1c(-c2ccc(/C=N\NC(=O)c3ccc(C(=O)N/N=C/c4ccc(-c5cn6ccsc6[n+]5C)cc4)cc3)cc2)cn2ccsc21 | > 100 | 35.1 | 58.2 | 47.7 | 44.1 | 50.9 | 28.5 | 48.9 | 54.9 | 47.9 |  |  |  |  |  |  |  |  |  |
| COc1c2ccoc2c(S(=O)(=O)Nc2ccc(Cl)cc2)c2oc(C)cc(=O)c12 | > 100 | > 100 | > 100 | > 100 | > 100 | > 100 | > 100 | > 100 | > 100 | > 100 |  |  |  |  |  |  |  |  |  |
| CCOc1cc(NC(C)=O)ccc1C(=O)NN1C(=O)CSC1c1ccc(O)c(OC)c1 (configuration not stated) | > 100 | > 100 | > 100 | > 100 | > 100 | > 100 | > 100 |  | > 100 | > 100 |  |  |  |  |  |  |  |  |  |
| O=C1N[C@@H]2c3c(Br)sc(Br)c3C(=O)[C@@H]2N1 | 3.29 | 20.6 | 19.4 | 18.3 | 91.2 | 17 | 6.72 | 7.03 | 8.19 | 10.1 |  |  |  |  |  |  |  |  |  |
| CN(C)CCC(C(=O)C(C)(C)C)c1ccccn1 (configuration not stated) | > 100 | > 100 | > 100 | > 100 | > 100 | > 100 | 93.6 | > 100 | > 100 | > 100 |  |  |  |  |  |  |  |  |  |
| O=C(Nc1ccc(F)cc1)c1cc2ccc(O)cc2oc1=Nc1ccccc1F | > 100 | > 100 | > 100 | > 100 |  | 13.6 | > 100 | 97.5 | > 100 | > 100 |  |  |  |  |  |  |  |  |  |
| C=C1C(=O)OC2/C=C(\C)CC(O)/C=C(/CO)CC(OC(=O)/C(C)=C/C)C12 (configuration not stated) | 76 | 246 | 229 | 66.6 | 91 | 136 | 122 | 303 | 202 | 68.2 |  |  |  |  |  |  |  |  |  |
| CCCCOc1ccc(S(=O)(=O)/N=C(\NN)Nc2ccc(Cl)cc2)cc1 | 47.6 | 38.5 | > 100 | 86.3 | > 100 | > 100 | 46.8 | 30.2 | 68.7 | > 100 |  |  |  |  |  |  |  |  |  |
| C[C@]12CC[C@H](O)CC1=CC[C@@H]1[C@@H]2CC[C@]2(C)C(=O)CC[C@@H]12 |  |  | > 100 | > 100 | > 100 | > 100 | > 100 | > 100 | > 100 | > 100 |  |  |  |  |  |  |  |  |  |
| NC1=NS(=O)(=O)Nc2nc(-c3cccs3)[nH]c21 | > 100 | > 100 | > 100 | > 100 |  | > 100 | > 100 | > 100 |  |  |  |  |  |  |  |  |  |  |  |
| Cc1onc(-c2c(F)cccc2Cl)c1C(=O)N[C@@H]1C(=O)N2[C@@H]1SC(C)(C)[C@@H]2C(=O)O |  | > 100 | > 100 | > 100 | > 100 | > 100 | > 100 | > 100 | > 100 | > 100 |  |  |  |  |  |  |  |  |  |
| FC(F)(F)C1=NC(=NNc2nnc(-c3ccccc3)c(-c3ccccc3)n2)N=C(C(F)(F)F)C1 | > 100 | > 86.7 | > 100 | > 100 | > 100 | > 100 | > 100 | > 86.3 | > 100 | > 100 |  |  |  |  |  |  |  |  |  |
| COc1ccc(-n2cc(-c3ccc(OC)c(OC)c3)nc2SCc2ccccc2)cc1Cl | 31.2 | > 100 | 68.1 |  | > 100 | > 100 | > 100 | > 100 | 38.3 | > 100 | 0.857 | 28.3 | 21.3 | 24 | 40.4 | 22.7 | 20.6 | 22.4 | 7.23 |
| O=c1cc(-c2nc3ccccc3[nH]2)[nH]c2nc(-c3nc4ccccc4[nH]3)cc(-c3ccc(Cl)cc3)c12 | 91.6 | 54.7 | 64.4 | 71.2 | 49.2 | > 100 | 63.4 | 40 | 69.3 | 36.3 |  |  |  |  |  |  |  |  |  |
| CO[C@]12C[C@H](CNC(=O)c3cc(Br)c(Br)[nH]3)O[C@H]1NC(=O)N2 | > 100 | > 100 | > 100 | > 100 | > 100 | > 100 | > 100 | > 100 | > 100 | > 100 |  |  |  |  |  |  |  |  |  |
| Cc1ccc(S(=O)(=O)NCCSS(=O)(=O)c2ccc(C)cc2)cc1 | > 100 |  | 85.8 |  | 49.6 | > 100 |  | 53.8 | > 100 | 41 |  |  |  |  |  |  |  |  |  |
| OC1(c2ccc3ccccc3c2)c2ccc3ccccc3c2C2=NCCN21 (configuration not stated) | > 100 | 47.3 | > 100 | > 100 |  | > 100 | > 100 | > 100 | > 100 | > 100 |  |  |  |  |  |  |  |  |  |
| CC[N+](CC)(CC)/C(=N/S(=O)(=O)c1cc(C)c(Cl)cc1S)[N-]S(=O)(=O)c1ccc(Cl)cc1 | > 100 | > 100 | > 100 |  | > 100 | > 100 | > 100 | > 100 | > 100 | > 100 |  |  |  |  |  |  |  |  |  |
| CCCC(=O)OCC(O)CO (configuration not stated) | > 5000 | > 5000 | > 5000 | > 5000 | > 5000 | > 5000 |  | > 5000 | > 5000 |  |  |  |  |  |  |  |  |  |  |
